Read-outs that look alike come from different tables or passages of the source.

Experimental findings from patent US6441026B1, “Antitumor compositions containing taxane derivatives” (priority 1995, dated 2002) are described below.

The test system of data set [1] is C38 colon adenocarcinoma. Conditions: optimum dose, i.v., days 21,25,29,33: Taxotere 22 mg/kg/inj; 5-fluorouracil 43.4; combination Taxotere 17.6 + 5-fluorouracil 27.0 (simultaneous). The source says: (§1) log10 cells killed=T−C(days)/3.32×Td
(§2) The animals are autopsied when sacrificed.

Data set [2] relates to Colon 51. As to conditions: for Responses TFS (tumor free survivors): on day 122. Here is the method: as §1, §2
(§3) The tumor model used to evaluate each drug combination was selected, in general, on the basis of its responsiveness to each of the agents when used as monotherapy. Using i.v. intermittent schedules, full dose response trials were conducted for each single agent and each combination.
(§4) In addition to the parameters described above, the combination toxicity index (CTI) was determined. […] Rep. 66: 1187-1200 (1982). […] It indicates the extent in host toxicity overlap.

Data set [3] concerns MA13/c mammary adenocarcinoma. Conditions: optimum dose, i.v.: Taxotere 15 mg/kg/inj days 14,17,20; cyclophosphamide 118 mg/kg day 14; combination Taxotere 7.5 + cyclophosphamide 90.0 mg/kg/inj.
Method: This efficacy may be quantified, for example, by the log10 cells killed, which is determined according to the following formula:
A product is considered to be active if log10 cells killed is greater than or equal to 0.7. A product is considered to be very active if log10 cells killed is greater than 2.8.
The combination, used at its own maximum tolerated dose, in which each of the constituents will be present at a dose generally not exceeding its maximum tolerated dose, will manifest therapeutic synergy when the log10 cells killed is greater than the value of the log10 cells killed of the best constituent when it is administered alone.
The efficacy of the combinations on solid tumors may be determined experimentally in the following manner:
The animals subjected to the experiment, generally mice, are subcutaneously grafted bilaterally with 30 to 60 mg of a tumor fragment on day 0. The animals bearing tumors are mixed before being subjected to the various treatments and controls. […]
The tumors are measured 2 or 3 times a week until the tumor reaches approximately 2 g, or until the animal dies if this occurs before the tumor reaches 2 g. […]
The antitumor activity is determined in accordance with the different parameters recorded.
For data set [4], the system named is MA13/C. As to conditions: mouse, in vivo. The method, then: as §1, §2, §3, §4
For data set [5], the system named is MA 17/C. Conditions: mouse, in vivo, iv, 40.3 mg/kg. Here is the method: as §1, §2, §3, §4
The mark [6] stands for this setting: CPT-11 trial: CPT-11 PO 42.5 mg/kg/inj 5,9 2x/d, acetocyclopropyl taxotere IV 21.1 days 5,9, combination 21.0 + 11.9 simult.
[7] abbreviates: cisplatin trial, days 5,12: acetocyclopropyl taxotere 30.0 mg/kg/inj IV, cisplatinum 3.1, combination 13.6 + 2.0 simult.

As for `O=c1[nH]cc(F)c(=O)[nH]1` [5-fluorouracil], the log10 cells killed in data set [1] was found to be 1.1.

Regarding `CCc1c2c(nc3ccc(OC(=O)N4CCC(N5CCCCC5)CC4)cc13)-c1cc3c(c(=O)n1C2)COC(=O)[C@]3(O)CC` [CPT-11], in data set [2] (setting [6]), the “% bwl loss at nadir” value was determined as 3.7%, the T/C % amounted to 0% and the “day of nadir (body weight loss)” value is listed as “(7) day”. Besides, the log cell kill in data set [2] (CPT-11 trial: CPT-11 PO 42.5 mg/kg/inj 5,9 2x/d, acetocyclopropyl taxotere IV 21.1 days 5,9, combination 21.0 + 11.9 simult., Td = 2 days) amounted to 1.1.

Turning to `N.N.[Cl][Pt][Cl]` [Cisplatinum, cisplatin], in data set [2] (setting [7]), the T/C % came to 0% and the “Responses TFS (tumor free survivors)” value is recorded as 0/7. Further, in data set [2] (cisplatin trial, days 5,12: acetocyclopropyl taxotere 30.0 mg/kg/inj IV, cisplatinum 3.1, combination 13.6 + 2.0 simult., Td = 2.5 days), the log cell kill is given as 2.7. In data set [2] (cisplatin trial, days 5,12: acetocyclopropyl taxotere 30.0 mg/kg/inj IV, cisplatinum 3.1, combination 13.6 + 2.0 simult., listed as cisplatin), the “Responses TFS (tumor free survivors)” value is listed as “no tumor free survivors”.

For `O=P1(N(CCCl)CCCl)NCCCO1` (centres unmarked) [Cylcophosphamide, cyclophosphamide], the log10 cells killed in data set [3] was 1.3.

In the case of `COc1cccc2c1C(=O)c1c(O)c3c(c(O)c1C2=O)C[C@@](O)(C(=O)CO)C[C@@H]3O[C@H]1C[C@H](N)[C@H](O)[C@H](C)O1` [Doxorubicin, doxorubicin], in data set [4], the “Responses CR (Complete Response)” value was 3/5 and the log cell kill was found to be 3.0.

Regarding `CCC1=C[C@@H]2CN(C1)Cc1c([nH]c3ccccc13)[C@@](C(=O)OC)(c1cc3c(cc1OC)N(C)[C@H]1[C@@](O)(C(=O)OC)[C@H](OC(C)=O)[C@]4(CC)C=CCN5CC[C@]31[C@@H]54)C2` [Navelbine], in data set [5], the “Responses TFS (tumor free survivors)” value is recorded as 0/6, the T/C % turned out to be 0% and the log cell kill is 5.5.

Turning to `CC(=O)O[C@@]12CO[C@@H]1C[C@H](O)[C@@]1(C)C(=O)[C@H](O)C3=C(C)[C@@H](OC(=O)[C@H](O)[C@@H](NC(=O)OC(C)(C)C)c4ccccc4)C[C@@](O)([C@@H](OC(=O)c4ccccc4)[C@H]21)C3(C)C` [Taxotere], the log10 cells killed was 2.8 in data set [3] and 1.4 in data set [1].
